Experimental data: patent US20110092548A1, “METHOD FOR TREATING/PREVENTING DISEASE USING COGNITIVE ABILITY OF CEREBRUM AND PHARMACEUTICAL” (priority 2006, published 2011)

Columns and labels:
[1] = tested on: large intestine cancer patients; test: Treatment of large intestine cancer patients (Example 2); type: in vivo, human; conditions: Table 2
Description: Next, treatment of 11 large intestine cancer patients is described.
In principle, the same as Example 1.
The following is course of treatment of the large intestine cancer patients.

[2] = cited from earlier work

For `O=C1O[C@H]([C@@H](O)CO)C(O)=C1O` [vitamin C, ascorbic acid], the Alive or dead [1] is listed as “Alive”, the stability to heat ([2]; heat) is listed as “weak to heat” and the oxidation reduction potential ([2]; pH 7.0) is listed as “+0.058 V”.
